From patent US9999623B2, “Use of substituted 2,3-dihydroimidazo[1,2-c]quinazolines for treating lymphomas” (BAYER PHARMA AKTIENGESELLSCHAFT, priority 2013, dated 2018)
pIC50: −log10 of the molar value. Counter-ions that a name gives are not always drawn.

Key:
[1] = test system: indolent or aggressive lymphoma; assay: Phase II study, single agent, response by lymphoma subtype; type: in vivo, human; conditions: for Best response CR/CRu, number of patients / Best response PD, number of patients / Best response PR, number of patients / Best response SD, number of patients: staged patients; for complete RR / overall response rate (RR): interim analysis
Procedure: In this Phase II study, patients with histologically confirmed indolent or aggressive lymphoma relapsed or refractory to ≥2 prior lines of treatment were eligible. Patients received COMPOUND OF FORMULA I at a dose of 0.8 mg/kg as a 1 hour infusion on days 1, 8 and 15 of a 28-day cycle. Patients continued on therapy until disease progression or unacceptable toxicity. Responses were assessed every two cycles according to the response criteria for lymphoma (Cheson et al, JCO 17:1244, 1999) or the guidelines for diagnosis and treatment of chronic lymphocytic leukemia (CLL; Hallek et al., Blood 111:5446-56, 2008).
As of May 31, 2013, a total of 61 lymphoma patients (27 indolent and 34 aggressive) were enrolled and 56 started study treatment. Patients were similarly distributed among indolent and aggressive cohorts with respect to gender (52% female), median age (68 yr, range 22-90) and ethnicity (76% Caucasian) and were heavily pretreated (median number of prior therapies: 3; prior Rituximab: 84%; prior ASCT: 20%). Other characteristics included advanced stage III-IV in 85% and B symptoms in 17%. The following entities were represented: follicular (FL; n=13); CLL (n=11); marginal zone (MZL; n=3; none re-staged); diffuse large B-cell (DLBCL; n=17); mantle cell (MCL; n=7); transformed (n=5); and peripheral T-cell (PTCL; n=4). At the time of analysis patients had received between 1 and 5 cycles of treatment. Objective responses were seen across histologic subtypes (Table 1). At the time of this interim analysis, the overall response rate (RR) and complete RR were 44% and 22% in FL, 83% and 17% in MCL, and 50% and 0% in PTCL, respectively.

[2] = Phase II study, single agent, safety (adverse events); type: in vivo, human
Procedure: Patients received COMPOUND OF FORMULA I at a dose of 0.8 mg/kg as a 1 hour infusion on days 1, 8 and 15 of a 28-day cycle. Patients continued on therapy until disease progression or unacceptable toxicity.

follicular NHL [3] = conditions: phase I dose-escalation study (Patnaik et al, ASH 2012); cited from earlier work
[4] = phase I dose-escalation study (Patnaik et al, ASH 2012); cited from earlier work
follicular NHL [5] = assay: Initial clinical efficacy in NHL patients (phase I dose-escalation), follicular NHL; type: in vivo, human; conditions: patients with PR/patients; PR at end of cycle 2 at 0.8 mg/kg, one case end of cycle 4 at 0.6 mg/kg
Procedure: A phase I dose-escalation study (Patnaik et al, ASH 2012) established the maximum tolerated dose of COMPOUND OF FORMULA I (0.8 mg/kg) and reported promising activity (6/6 PR) in follicular lymphoma. In the present study we further investigated the activity and safety of COMPOUND OF FORMULA I in patients with indolent or aggressive lymphoma subtypes that have progressed after standard therapy.

DLBCL [6] = assay: Initial clinical efficacy in NHL patients (phase I dose-escalation), DLBCL; type: in vivo, human; conditions: DLBCL patient with SD
Half-life in mice = conditions: mouse, in vivo, iv
DLBCL cell lines = assay: 72-h CellTiter-Glo anti-proliferative assay; type: cell-based, human; conditions: for anti-proliferative activity profile across DLBCL cell lines: panel of 8 DLBCL cell lines; for pIC50: Homo sapiens
Procedure: Briefly, cells were plated at 250-2000 cells/well of 384-well plates (based on cell lines) in 20 μL of growth medium. For each cell line assayed, cells were plated into a separate plate for determination of luminescence at the t=0 hours and t=72 hour time points. […] Dose plates for t=72 hour time points were treated with compounds diluted into growth medium in a final volume of 30 μL. Cells were then incubated for 72 hours at 37° C. Luminescence values for the t=72 hour samples were determined by adding 30 μL of Promega CellTiter-Glo solution, placing the cells on a shaker for 10 minutes at room temperature, and then reading the luminescence using a Victor luminometer. For data processing, t=0 values are subtracted from those determined for the t=72 hour time points, for both the treated and untreated samples. Percent differences in luminescence between drug treated and controls are used to determine percent inhibition of growth.

[7] = test system: signaling pathways in OCI-Ly3 and HBL-1 cells; assay: Western blot modulation of intracellular signaling pathways; type: cell-based, human; conditions: 24 h post treatment
Procedure: Modulation of intracellular pathways were assessed by Western blots at 24 h post treatment with indicated compounds either as single agent or in combination. Antibodies used in this study are AKT (#4685, Cell Signaling), p-AKT (04060, Cell Signaling), ERK (#4695, Cell Signaling), p-ERK (#4376, Cell Signaling), BTK (#3533, Cell Signaling), p-BTK (05082, Cell Signaling), IκBα (#4812, Cell Signaling), p-IκBα (#AF4809, R&D), p-IKKα/β (02078, Cell Signaling), IKKβ (02370, Cell Signaling).

DLBCL [8] = conditions: patients with PD/patients; cited from earlier work
TMD-8 tumor cells = conditions: 20 mg/kg once daily po; day 29
Procedure: Untreated female 5-6 week old CB17.Scid mice are inoculated with 10×10^6 TMD-8 tumor cells (suspended in 50% Matrigel and 50% Medium) subcutaneously into the flank. Animals are randomized to treatment groups when tumors reach a tumor area of 30-35 mm^2. Treatment is conducted as described in FIG. 5 legend. Tumor area and animal body are recorded three times per week.
Tumor growth was monitored by determination of the tumor area using caliper measurement 3 times weekly. QD, once daily; SD, standard deviation of the mean; TGI, relative tumor growth inhibition vs control (%, tumor area at the end of the study on day 29)

COc1c(OCCCN2CCOCC2)ccc2c1N=C(NC(=O)c1cnc(N)nc1)N1CCN=C21 [COMPOUND OF FORMULA I, 2-amino-N-[7-methoxy-8-(3-morpholin-4-ylpropoxy)-2,3-dihydroimidazo[1,2-c]quinazolin-5-yl]pyrimidine-5-carboxamide]
Best response CR/CRu, number of patients ([1]; CLL (n = 9)): 0
Best response PD, number of patients ([1]; CLL (n = 9)): 1
Best response PR, number of patients ([1]; CLL (n = 9)): 4
Best response SD, number of patients ([1]; CLL (n = 9)): 4
Best response CR/CRu, number of patients ([1]; DLBCL (n = 17)): 0
Best response PD, number of patients ([1]; DLBCL (n = 17)): 8
Best response PR, number of patients ([1]; DLBCL (n = 17)): 2
Best response SD, number of patients ([1]; DLBCL (n = 17)): 7
Best response CR/CRu, number of patients ([1]; FL (n = 9)): 2
Best response PD, number of patients ([1]; FL (n = 9)): 0
Best response PR, number of patients ([1]; FL (n = 9)): 2
Best response SD, number of patients ([1]; FL (n = 9)): 5
complete RR ([1]; FL): 22%
overall response rate (RR) ([1]; FL, 0.8 mg/kg days 1, 8, 15 of 28-day cycle): 44%
Best response CR/CRu, number of patients ([1]; MCL (n = 6)): 1
Best response PD, number of patients ([1]; MCL (n = 6)): 1
Best response PR, number of patients ([1]; MCL (n = 6)): 4
Best response SD, number of patients ([1]; MCL (n = 6)): 0
complete RR ([1]; MCL): 17%
overall response rate (RR) ([1]; MCL): 83%
Best response CR/CRu, number of patients ([1]; PTCL (n = 4)): 0
Best response PD, number of patients ([1]; PTCL (n = 4)): 2
Best response PR, number of patients ([1]; PTCL (n = 4)): 2
Best response SD, number of patients ([1]; PTCL (n = 4)): 0
complete RR ([1]; PTCL): 0%
overall response rate (RR) ([1]; PTCL): 50%
Best response CR/CRu, number of patients ([1]; Transformed (n = 5)): 0
Best response PD, number of patients ([1]; Transformed (n = 5)): 2
Best response PR, number of patients ([1]; Transformed (n = 5)): 1
Best response SD, number of patients ([1]; Transformed (n = 5)): 2
clinical activity ([1]; single agent, 1st line, 2nd line, relapsed, refractory lymphoma): clinically active as a single agent
deaths ([2]; 1 progressive disease, 1 acute respiratory insufficiency, 1 Cryptococcal meningitis, 1 sepsis after salvage chemotherapy): Four
toxicity profile ([2]; 1st line, 2nd line, relapsed, refractory lymphoma): acceptable toxicity profile
cases of interstitial pneumonitis ([2]; both resolved following corticosteroid administration): two
Hyperglycemia of any grade ([2]; in vivo): 47%
Withdrawal of study drug due to AEs ([2]; in vivo): 10 patients
colitis ([2]; in vivo): No case of colitis was reported
grade 4 hyperglycemia ([2]; in vivo): no grade 4 hyperglycemia was observed
grade 4 hypertension ([2]; in vivo): no grade 4 hypertension was reported
patients who required a dose reduction ([2]; in vivo): 4 patients
patients who required antihypertensive treatment ([2]; in vivo): Eight
patients who required insulin therapy ([2]; in vivo): Four
Diarrhea of any grade ([2]; of cases): 25%
Grade 3/4 AE diarrhea ([2]; of patients): 5%
Grade 3/4 AE fatigue ([2]; of patients): 5%
Grade 3/4 AE hyperglycemia ([2]; of patients): 13%
Grade 3/4 AE hypertension ([2]; of patients): 31%
Grade 3/4 AE neutropenia ([2]; of patients): 16%
Grade 3 adverse events (AE) ([2]; of patients): 49%
Hypertension of any grade ([2]; of patients): 46%
Withdrawal of study drug due to AEs ([2]; of patients): 16%
grade 4 AE (all neutropenia) ([2]; of patients): 15%
PR in follicular lymphoma (follicular NHL [3]): 6/6
maximum tolerated dose [4]: 0.8 mg/kg

COc1c(OCCCN2CCOCC2)ccc2c1N=C(NC(=O)c1cnc(N)nc1)N1CCN=C21 [COMPOUND A, 2-amino-N-[7-methoxy-8-(3-morpholin-4-ylpropoxy)-2,3-dihydroimidazo[1,2-c]quinazolin-5-yl]pyrimidine-5-carboxamide dihydrochloride]
PR (partial response) in follicular NHL (follicular NHL [5]): 6/6
tumor reduction (DLBCL [6]): 39%
half-life (Half-life in mice): ~1 h

CC[C@H](Nc1ncnc2[nH]cnc12)c1nc2cccc(F)c2c(=O)n1-c1ccccc1 [GS-1101]
decreased activity with respect to IC50 values (DLBCL cell lines; any mutations downstream of BCR): > 100 fold
anti-proliferative activity profile across DLBCL cell lines (DLBCL cell lines): active only in BCR-mutant cell lines without downstream mutations
feedback activation of p-ERK ([7]; HBL-1 cells): Activation of p-ERK
PD (progression of disease) in DLBCL patients (DLBCL [8]): 9/9

C=CC(=O)N1CCC[C@@H](n2nc(-c3ccc(Oc4ccccc4)cc3)c3c(N)ncnc32)C1 [ibrutinib]
pIC50 (DLBCL cell lines; BCR-mutant cell lines even in the presence of activating NFκB pathway): > 7.52
pIC50 (DLBCL cell lines; cell lines without BCR-activating mutations (or complete inactivity)): < 6.00
TGI (rel TA) (TMD-8 tumor cells): 70%
feedback activation of p-ERK ([7]; both HBL-1 and OCI-Ly3 cells): Activation of p-ERK

O=C1Nc2nc(-c3c(O)cccc3OCC3CC3)cc([C@@H]3CCCNC3)c2CO1 [BAY Compound B]
anti-proliferative activity profile across DLBCL cell lines (DLBCL cell lines): more active in ABC-DLBCL compared with GCB-DLBCL cell lines
feedback activation of p-IKKα/β ([7]; both HBL-1 and OCI-Ly3 cells): Activation of p-IKKα/β
